# Source: patent publication US12617784B2, “AKT inhibitor” (Nanjing Chia Tai Tianqing Pharmaceutical Co., Ltd., priority 2019, dated 2026)
# Counter-ions that a name gives are not always drawn.
# Legend:
# AKT1 = AKT1 (Homo sapiens, UniProt P31749); assay: In vitro enzyme activity test (HTRF kinEASE TK), AKT1; format: biochemical; details: ATP 2 μM, enzyme 0.6 ng/well, reaction 50 min
# Experimental: (§1) Experimental Procedure 2.1 Preparation of Reagents
# (§2) 1 mL 1× Kinase Reaction Buffer of Kinase AKT1, AKT2 and AKT3 contain 200 μL 5× Kinase Reaction Buffer, 5 μL 1 M MgCl2, 1 μL 1 M DTT and 794 μL ultrapure water.
# (§3) In addition to the control wells, 4 μL of the diluted compound working solutions were added to all reaction wells.
# (§4) b) 2 μL of the previously prepared TK-biotin substrate solution was added to all reaction wells.
# (§5) c) 2 μL of the previously prepared enzyme solution was added to all reaction wells, except the negative wells. The volume of the negative well was filled with 2 μL of enzyme corresponding to 1× kinase reaction buffer. The plate was sealed with sealing film. After mixing, the plate was incubated at room temperature for 10 min to allow the compound and enzyme to fully combined.
# (§6) d) 2 μL of ATP solution was added to all reaction wells to start the kinase reaction.
# (§7) e) The test solution was prepared 5 min before the end of the kinase reaction.
# (§8) f) After the kinase reaction was completed, 5 μL of diluted streptavidin-XL665 were added to all reaction wells, and immediately the diluted europium-labeled tyrosine kinase substrate antibody detection solution was added after mixing.
# (§9) g) The plate was sealed and mixed well. […] The inhibition rate of each well was calculated through the fully active wells and the background signal wells, taking the average value in case of multiple wells. Meanwhile, the professional drawing analysis software PRISM 6.0 was used to fit the half maximal inhibitory concentration (IC50) of each test compound.
# AKT3 = biological target: T1, AKT3 (Homo sapiens, UniProt Q9Y243); assay: In vitro enzyme activity test (HTRF kinEASE TK), AKT3; format: biochemical; details: enzyme 0.3 ng/well, reaction 50 min
# T1 construct: purchased Invitrogen PV3185
# Experimental: as §1, §2, §3, §4, §5, §6, §7, §8, §9
# T1 sequence (Q9Y243 whole entry): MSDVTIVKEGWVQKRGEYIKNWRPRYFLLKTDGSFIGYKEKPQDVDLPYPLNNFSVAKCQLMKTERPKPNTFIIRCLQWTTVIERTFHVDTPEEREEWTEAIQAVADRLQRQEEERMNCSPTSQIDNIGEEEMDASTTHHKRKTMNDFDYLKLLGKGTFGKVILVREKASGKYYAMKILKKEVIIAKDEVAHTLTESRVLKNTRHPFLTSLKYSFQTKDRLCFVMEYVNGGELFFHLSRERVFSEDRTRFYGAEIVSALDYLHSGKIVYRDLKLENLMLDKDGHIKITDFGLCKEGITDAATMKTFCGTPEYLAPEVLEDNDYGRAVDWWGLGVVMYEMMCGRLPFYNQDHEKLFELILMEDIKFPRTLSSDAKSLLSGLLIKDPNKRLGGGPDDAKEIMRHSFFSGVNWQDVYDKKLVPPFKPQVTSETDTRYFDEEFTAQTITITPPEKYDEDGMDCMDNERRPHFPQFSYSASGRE
# AKT1, sequence (P31749 whole entry): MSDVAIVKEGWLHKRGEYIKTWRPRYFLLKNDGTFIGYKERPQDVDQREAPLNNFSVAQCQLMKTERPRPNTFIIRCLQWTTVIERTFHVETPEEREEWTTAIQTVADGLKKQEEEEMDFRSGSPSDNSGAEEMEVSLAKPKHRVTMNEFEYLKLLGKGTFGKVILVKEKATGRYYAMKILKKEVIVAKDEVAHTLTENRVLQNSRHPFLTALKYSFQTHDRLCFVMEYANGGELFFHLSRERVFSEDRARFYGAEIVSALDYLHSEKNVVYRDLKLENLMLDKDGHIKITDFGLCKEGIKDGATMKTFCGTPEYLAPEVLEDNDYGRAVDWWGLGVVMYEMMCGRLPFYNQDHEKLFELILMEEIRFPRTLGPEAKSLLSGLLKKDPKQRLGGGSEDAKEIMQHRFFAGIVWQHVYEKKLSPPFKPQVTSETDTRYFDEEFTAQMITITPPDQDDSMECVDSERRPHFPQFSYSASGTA
SMILES,IC50 (AKT1),IC50 (AKT3)
"CC(C)NC[C@@H](C(=O)N1CCN(c2ncnc3c2C[C@@H](C)C(=O)N3)CC1)c1ccc(Cl)cc1 (single isomer, unassigned) [Example 19 Isomer 1]",82 nM,18 nM
"CC(C)NC[C@@H](C(=O)N1CCN(c2ncnc3c2[C@H](C)OC(=O)N3)CC1)c1ccc(Cl)cc1 (single isomer, unassigned) [Example 23 Isomer 1]",1.5 nM,0.19 nM
"CC(C)NC[C@@H](C(=O)N1CCN(c2ncnc3c2[C@@H](C)OC(=O)N3)CC1)c1ccc(Cl)cc1 (single isomer, unassigned) [Example 23 Isomer 2]",201 nM,42 nM
"CC(C)NC[C@@H](C(=O)N1CCN(c2ncnc3c2[C@H](C)OC(=O)N3)CC1)c1ccc(Cl)cc1 (single isomer, unassigned) [Example 24 Isomer 1]",354 nM,61 nM
"CC(C)NC[C@@H](C(=O)N1CCN(c2ncnc3c2N(C)CC(=O)N3)[C@H]2C[C@H]21)c1ccc(Cl)cc1 (single isomer, unassigned) [Example 27 Isomer 1]",22 nM,0.48 nM
"CC(C)NC[C@@H](C(=O)N1CC2CCC(C1)N2c1ncnc2c1[C@@H](C)OC(=O)N2)c1ccc(Cl)cc1 (single isomer, unassigned) [Example 33 Isomer 2]",260 nM,55 nM
"CC(C)NC[C@@H](C(=O)N1CCN(c2ncnc3c2[C@@H]2C[C@@H]2C(=O)N3)CC1)c1ccc(Cl)cc1 (single isomer, unassigned) [Example 40 Isomer 1]",14 nM,12 nM
"CC(C)NC[C@@H](C(=O)N1CCN(c2ncnc3c2C(C)CC(=O)N3)CC1)c1ccc(Cl)cc1 (stereo partly drawn) [Example 1, 4-(4-((S)-2-(4-chlorophenyl)-3-(isopropylamino)propionyl)piperazin-1-yl)-5-methyl-5,8-dihydropyrido[2,3-d]pyrimidin-7(6H)-one]",2.4 nM,1.6 nM
"CC(C)NC[C@@H](C(=O)N1CCN(c2ncnc3c2[C@H](C)CC(=O)N3)[C@H](C)C1)c1ccc(Cl)cc1 [Example 7, (R)-4-((R)-4-((S)-2-(4-chlorophenyl)-3-(isopropylamino)propionyl)-2-methylpiperazin-1-yl)-5-methyl-5,8-dihydropyrido[2,3-d]pyrimidin-7(6H)-one]",26.4 nM,7.4 nM
"CC(C)NC[C@@H](C(=O)N1CC2CCC(C1)N2c1ncnc2c1[C@H](C)CC(=O)N2)c1ccc(Cl)cc1 [Example 11, (R)-4-(3-((S)-2-(4-chlorophenyl)-3-(isopropylamino)propionyl)-3,8-diazabicyclo[3.2.1]octan-8-yl)-5-methyl-5,8-dihydropyrido[2,3-d]pyrimidin-7(6H)-one]",3.5 nM,0.25 nM
"CC(C)NC[C@@H](C(=O)N1CCN(c2ncnc3c2[C@H](C)CC(=O)N3)CC12CC2)c1ccc(Cl)cc1 [Example 12, (R)-4-(4-((S)-2-(4-chlorophenyl)-3-(isopropylamino)propionyl)-4,7-diazaspiro[2.5]octan-7-yl)-5-methyl-5,8-dihydropyrido[2,3-d]pyrimidin-7(6H)-one]",55.1 nM,4.8 nM
"CC(C)NC[C@@H](C(=O)N1CCN(c2ncnc3c2CC(C)C(=O)N3)CC1)c1ccc(Cl)cc1 (stereo partly drawn) [Example 19, 4-(4-((S)-2-(4-chlorophenyl)-3-(isopropylamino)propionyl)piperazin-1-yl)-6-methyl-5,8-dihydropyrido[2,3-d]pyrimidin-7(6H)-one hydrochloride]",58.5 nM,7.4 nM
"CC(C)NC[C@@H](C(=O)N1CCN(c2ncnc3c2N(C)CC(=O)N3)CC1)c1ccc(Cl)cc1 [Example 20, (S)-4-(4-(2-(4-chlorophenyl)-3-(isopropylamino)propionyl)piperazin-1-yl)-5-methyl-5,8-dihydropteridine-7(6H)-one hydrochloride]",1.1 nM,0.4 nM

# Other lines, results leading:
IC50 (AKT1),IC50 (AKT3),SMILES
776 nM,139 nM,"CC(C)NC[C@@H](C(=O)N1CCN(c2ncnc3c2[C@@H](C(F)(F)F)CC(=O)N3)CC1)c1ccc(Cl)cc1 (single isomer, unassigned) [Example 16 Isomer 1]"
12 nM,1 nM,"CC(C)NC[C@@H](C(=O)N1CCN(c2ncnc3c2[C@H](C(F)(F)F)CC(=O)N3)CC1)c1ccc(Cl)cc1 (single isomer, unassigned) [Example 16 Isomer 2]"
25 nM,9.1 nM,"CC(C)NC[C@@H](C(=O)N1CCN(c2ncnc3c2C[C@H](C)C(=O)N3)CC1)c1ccc(Cl)cc1 (single isomer, unassigned) [Example 19 Isomer 2]"
0.63 nM,0.41 nM,"CC(C)NC[C@@H](C(=O)N1C2CCC1CN(c1ncnc3c1[C@H](C)OC(=O)N3)C2)c1ccc(Cl)cc1 (single isomer, unassigned) [Example 32 Isomer 1]"
25 nM,9.8 nM,"CC(C)NC[C@@H](C(=O)N1C2CCC1CN(c1ncnc3c1[C@@H](C)OC(=O)N3)C2)c1ccc(Cl)cc1 (single isomer, unassigned) [Example 32 Isomer 2]"
1.6 nM,0.2 nM,"CC(C)NC[C@@H](C(=O)N1CC2CCC(C1)N2c1ncnc2c1[C@H](C)OC(=O)N2)c1ccc(Cl)cc1 (single isomer, unassigned) [Example 33 Isomer 1]"
186 nM,45 nM,"CC(C)NC[C@@H](C(=O)N1CCN(c2ncnc3c2[C@H](C)OC(=O)N3)[C@@H]2C[C@@H]21)c1ccc(Cl)cc1 (single isomer, unassigned) [Example 34 Isomer 1]"
613 nM,89 nM,"CC(C)NC[C@@H](C(=O)N1CCN(c2ncnc3c2[C@@H](C)OC(=O)N3)[C@@H]2C[C@@H]21)c1ccc(Cl)cc1 (single isomer, unassigned) [Example 34 Isomer 2]"
429 nM,232 nM,"CC(C)NC[C@@H](C(=O)N1CCN(c2ncnc3c2[C@@H](C)OC(=O)N3)[C@H]2C[C@H]21)c1ccc(Cl)cc1 (single isomer, unassigned) [Example 34 Isomer 3]"
82 nM,61 nM,"CC(C)NC[C@@H](C(=O)N1CCN(c2ncnc3c2[C@H]2C[C@H]2C(=O)N3)CC1)c1ccc(Cl)cc1 (single isomer, unassigned) [Example 40 Isomer 2]"
52.4 nM,7.5 nM,"CC(C)NC[C@@H](C(=O)N1CCN(c2ncnc3c2CCC(=O)N3)CC1)c1ccc(Cl)cc1 [Example 3, (S)-4-(4-(2-(4-chlorophenyl)-3-(isopropylamino)propionyl)piperazin-1-yl)-5,8-dihydropyrido[2,3-d]pyrimidin-7(6H)-one]"
28.7 nM,2.7 nM,"CC(C)NC[C@@H](C(=O)N1CCN(c2ncnc3c2[C@H](C)CC(=O)N3)C[C@H]1C)c1ccc(Cl)cc1 [Example 8, (R)-4-((R)-4-((S)-2-(4-chlorophenyl)-3-(isopropylamino)propionyl)-3-methylpiperazin-1-yl)-5-methyl-5,8-dihydropyrido[2,3-d]pyrimidin-7(6H)-one]"
285 nM,6.6 nM,"CC(C)NC[C@@H](C(=O)N1C[C@@H]2CN(c3ncnc4c3[C@H](C)CC(=O)N4)C[C@@H]2C1)c1ccc(Cl)cc1 [Example 13 cis-isomer, cis-(5R)-4-(5-((S)-2-(4-chlorophenyl)-3-(isopropylamino)propionyl)hexahydropyrrole[3,4-c]pyrrole-2(1H)-yl)-5-methyl-5,8-dihydropyrido[2,3-d]pyrimidin-7(6H)-one]"
6 nM,1.2 nM,"CC(C)NC[C@@H](C(=O)N1CCN(c2ncnc3c2C(C)OC(=O)N3)CC1)c1ccc(Cl)cc1 (stereo partly drawn) [Example 23, 5-(4-((S)-2-(4-chlorophenyl)-3-(isopropylamino)propionyl)piperazin-1-yl)-4-methyl-1,4-dihydro-2H-pyrimido[4,5-d][1,3]oxazin-2-one formate]"
30 nM,0.52 nM,CC(C)NC[C@@H](C(=O)N1CC2CCC(C1)N2c1ncnc2c1N(C)CC(=O)N2)c1ccc(Cl)cc1 [Example 26]
146 nM,212 nM,"CC(C)NC[C@@H](C(=O)N1CCN(c2ncnc3c2N(C)C(=O)CN3)CC1)c1ccc(Cl)cc1 [Example 35, (S)-4-(4-(2-(4-chlorophenyl)-3-(isopropylamino)propionyl)piperazin-1-yl)-5-methyl-7,8-dihydropteridine-6(5H)-one]"
